Experimental findings from ChEMBL document CHEMBL5725665, “Pyrazolopyridines and pyrazolopyrimidines” (2018) are described below.

Broadly, the IC50 is the concentration at which inhibition is half-maximal.

Test [1] concerns the target Tyrosine-protein kinase JAK2 (Homo sapiens, UniProt O60674). Description: (§1) JAK Caliper Enzyme Assay at 1 mM ATP: Test article was solubilized in dimethyl sulfoxide (DMSO) to a stock concentration of 30 mM. An 11-point half log dilution series was created in DMSO with a top concentration of 600 μM. […] The compound plates were diluted 1 to 60 resulting in a top final assay compound concentration of 10 μM and a 2% DMSO concentration.Test article and assay controls were added to a 384-well plate. Reaction mixtures contained 20 mM HEPES, pH 7.4, 10 mM magnesium chloride, 0.01% bovine serum albumin (BSA), 0.0005% Tween 20, 1 mM ATP and 1 μM peptide substrate. […] Enzyme concentrations and incubation times were optimized for each new enzyme preps and were modified slightly over time to ensure 20%-30% phosphorylation. The assays were stopped with a final concentration of 10 mM EDTA, 0.1% Coating Reagent and 100 mM HEPES, pH=7.4. The assay plates were placed on a Caliper Life Science Lab Chip 3000 (LC3000) instrument, and each well was sampled using appropriate separation conditions to measure the unphosphorylated and phosphorylated peptide.

The target of test [2] is Tyrosine-protein kinase JAK1 (Homo sapiens, UniProt P23458). Described as §1, with “substrate. The JAK1 and TYK2 assays contained 1 μM of the IRStide peptide (5FAM-[…]) and the JAK2 and JAK3 assays contained 1 μM of the JAKtide peptide (FITC-[…]).” for “substrate.”.
Test [3] has as its target Non-receptor tyrosine-protein kinase TYK2 (Homo sapiens, UniProt P29597). The description is as above.
Test [4] addresses T1, Tyrosine-protein kinase JAK3 (Homo sapiens, UniProt P52333).
T1 sequence (P52333 whole entry): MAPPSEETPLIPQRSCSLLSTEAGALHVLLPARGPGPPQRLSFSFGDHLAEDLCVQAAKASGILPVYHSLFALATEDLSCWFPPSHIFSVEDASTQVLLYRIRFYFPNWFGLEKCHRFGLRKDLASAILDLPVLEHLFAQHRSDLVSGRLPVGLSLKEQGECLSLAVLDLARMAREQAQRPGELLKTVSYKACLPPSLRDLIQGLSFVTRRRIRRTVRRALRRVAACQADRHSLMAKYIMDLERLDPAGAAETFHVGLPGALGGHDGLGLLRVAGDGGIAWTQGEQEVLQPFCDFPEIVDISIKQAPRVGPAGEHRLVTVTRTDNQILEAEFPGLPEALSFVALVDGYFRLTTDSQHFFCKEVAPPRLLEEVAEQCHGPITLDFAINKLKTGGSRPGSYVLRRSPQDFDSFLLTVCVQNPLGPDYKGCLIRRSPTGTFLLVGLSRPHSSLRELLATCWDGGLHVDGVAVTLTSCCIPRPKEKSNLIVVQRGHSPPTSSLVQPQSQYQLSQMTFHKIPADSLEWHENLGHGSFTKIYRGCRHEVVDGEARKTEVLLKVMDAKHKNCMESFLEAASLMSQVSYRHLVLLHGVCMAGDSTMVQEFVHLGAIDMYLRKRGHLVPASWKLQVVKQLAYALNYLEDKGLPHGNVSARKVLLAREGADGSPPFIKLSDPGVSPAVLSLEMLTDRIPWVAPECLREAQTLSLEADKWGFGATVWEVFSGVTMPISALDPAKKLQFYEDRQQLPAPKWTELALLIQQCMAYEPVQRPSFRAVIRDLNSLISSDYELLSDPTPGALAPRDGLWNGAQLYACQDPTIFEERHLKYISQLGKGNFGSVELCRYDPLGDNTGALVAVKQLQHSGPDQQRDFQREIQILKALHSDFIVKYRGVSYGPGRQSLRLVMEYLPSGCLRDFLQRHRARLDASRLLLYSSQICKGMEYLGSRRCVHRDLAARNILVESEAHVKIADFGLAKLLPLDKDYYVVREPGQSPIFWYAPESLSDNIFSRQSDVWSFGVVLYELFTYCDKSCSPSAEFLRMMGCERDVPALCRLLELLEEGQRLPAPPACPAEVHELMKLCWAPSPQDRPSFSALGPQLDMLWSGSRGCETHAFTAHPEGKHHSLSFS
The description is as above.

Chain of Tyrosine-protein kinase JAK1 (P23458 whole entry): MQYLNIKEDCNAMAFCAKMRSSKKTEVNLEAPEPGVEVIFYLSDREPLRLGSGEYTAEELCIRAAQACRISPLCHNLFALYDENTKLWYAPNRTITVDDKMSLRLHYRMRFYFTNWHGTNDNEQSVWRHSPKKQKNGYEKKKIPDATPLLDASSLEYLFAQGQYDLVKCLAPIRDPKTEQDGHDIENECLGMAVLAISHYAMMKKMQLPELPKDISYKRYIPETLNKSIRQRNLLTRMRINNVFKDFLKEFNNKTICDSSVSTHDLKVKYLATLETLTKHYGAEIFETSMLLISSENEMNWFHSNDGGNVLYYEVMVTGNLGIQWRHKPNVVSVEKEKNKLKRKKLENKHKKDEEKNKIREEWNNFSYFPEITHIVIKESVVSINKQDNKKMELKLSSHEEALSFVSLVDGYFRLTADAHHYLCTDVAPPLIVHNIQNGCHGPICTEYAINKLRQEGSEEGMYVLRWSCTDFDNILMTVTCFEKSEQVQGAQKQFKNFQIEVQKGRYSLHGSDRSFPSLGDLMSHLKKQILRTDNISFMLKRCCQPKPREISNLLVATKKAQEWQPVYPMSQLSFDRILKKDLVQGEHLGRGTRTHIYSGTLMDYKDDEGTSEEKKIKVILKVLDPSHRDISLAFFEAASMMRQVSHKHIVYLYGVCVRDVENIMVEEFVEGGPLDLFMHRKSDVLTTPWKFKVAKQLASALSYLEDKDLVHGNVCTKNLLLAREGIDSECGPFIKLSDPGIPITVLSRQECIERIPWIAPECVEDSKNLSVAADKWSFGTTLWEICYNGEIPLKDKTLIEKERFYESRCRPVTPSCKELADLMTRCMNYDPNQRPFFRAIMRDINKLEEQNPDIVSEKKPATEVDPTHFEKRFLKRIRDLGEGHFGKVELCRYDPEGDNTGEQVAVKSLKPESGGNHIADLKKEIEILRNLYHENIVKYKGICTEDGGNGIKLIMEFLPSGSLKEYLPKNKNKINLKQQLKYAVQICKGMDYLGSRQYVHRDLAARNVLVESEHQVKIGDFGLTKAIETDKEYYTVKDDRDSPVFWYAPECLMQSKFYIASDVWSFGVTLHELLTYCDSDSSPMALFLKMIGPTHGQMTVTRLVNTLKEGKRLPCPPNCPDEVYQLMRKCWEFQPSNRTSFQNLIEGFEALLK
Chain of Non-receptor tyrosine-protein kinase TYK2 (P29597 whole entry): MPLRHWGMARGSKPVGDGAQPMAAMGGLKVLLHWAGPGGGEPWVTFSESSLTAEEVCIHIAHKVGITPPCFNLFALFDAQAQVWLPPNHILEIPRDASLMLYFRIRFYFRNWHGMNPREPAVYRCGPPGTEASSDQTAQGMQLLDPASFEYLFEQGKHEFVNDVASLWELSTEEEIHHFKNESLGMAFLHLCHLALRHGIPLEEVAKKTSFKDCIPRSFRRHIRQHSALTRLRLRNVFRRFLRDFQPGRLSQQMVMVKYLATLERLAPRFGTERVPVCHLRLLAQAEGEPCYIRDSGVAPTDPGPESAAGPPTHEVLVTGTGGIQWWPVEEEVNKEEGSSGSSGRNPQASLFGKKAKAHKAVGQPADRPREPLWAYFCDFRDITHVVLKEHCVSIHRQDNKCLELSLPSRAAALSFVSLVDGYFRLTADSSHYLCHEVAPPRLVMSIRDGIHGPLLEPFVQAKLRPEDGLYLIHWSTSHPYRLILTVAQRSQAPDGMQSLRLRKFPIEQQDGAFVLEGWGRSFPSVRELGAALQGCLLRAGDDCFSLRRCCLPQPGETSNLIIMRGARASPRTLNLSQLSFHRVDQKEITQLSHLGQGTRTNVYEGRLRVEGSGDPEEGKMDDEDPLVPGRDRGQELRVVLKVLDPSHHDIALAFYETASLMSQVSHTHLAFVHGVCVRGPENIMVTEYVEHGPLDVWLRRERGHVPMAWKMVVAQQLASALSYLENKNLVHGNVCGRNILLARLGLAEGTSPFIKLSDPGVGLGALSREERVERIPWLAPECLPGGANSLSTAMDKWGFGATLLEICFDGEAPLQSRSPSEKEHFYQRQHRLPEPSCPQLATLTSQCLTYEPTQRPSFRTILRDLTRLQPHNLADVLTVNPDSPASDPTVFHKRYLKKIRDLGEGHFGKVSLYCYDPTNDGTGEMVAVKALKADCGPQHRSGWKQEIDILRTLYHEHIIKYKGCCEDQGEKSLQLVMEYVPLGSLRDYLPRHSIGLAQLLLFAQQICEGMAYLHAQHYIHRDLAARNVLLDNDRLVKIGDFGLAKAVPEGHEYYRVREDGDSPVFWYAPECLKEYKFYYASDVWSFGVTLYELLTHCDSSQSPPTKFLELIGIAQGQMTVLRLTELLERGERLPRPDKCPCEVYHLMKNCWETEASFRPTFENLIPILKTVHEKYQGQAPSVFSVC
Chain of Tyrosine-protein kinase JAK2 (O60674 whole entry): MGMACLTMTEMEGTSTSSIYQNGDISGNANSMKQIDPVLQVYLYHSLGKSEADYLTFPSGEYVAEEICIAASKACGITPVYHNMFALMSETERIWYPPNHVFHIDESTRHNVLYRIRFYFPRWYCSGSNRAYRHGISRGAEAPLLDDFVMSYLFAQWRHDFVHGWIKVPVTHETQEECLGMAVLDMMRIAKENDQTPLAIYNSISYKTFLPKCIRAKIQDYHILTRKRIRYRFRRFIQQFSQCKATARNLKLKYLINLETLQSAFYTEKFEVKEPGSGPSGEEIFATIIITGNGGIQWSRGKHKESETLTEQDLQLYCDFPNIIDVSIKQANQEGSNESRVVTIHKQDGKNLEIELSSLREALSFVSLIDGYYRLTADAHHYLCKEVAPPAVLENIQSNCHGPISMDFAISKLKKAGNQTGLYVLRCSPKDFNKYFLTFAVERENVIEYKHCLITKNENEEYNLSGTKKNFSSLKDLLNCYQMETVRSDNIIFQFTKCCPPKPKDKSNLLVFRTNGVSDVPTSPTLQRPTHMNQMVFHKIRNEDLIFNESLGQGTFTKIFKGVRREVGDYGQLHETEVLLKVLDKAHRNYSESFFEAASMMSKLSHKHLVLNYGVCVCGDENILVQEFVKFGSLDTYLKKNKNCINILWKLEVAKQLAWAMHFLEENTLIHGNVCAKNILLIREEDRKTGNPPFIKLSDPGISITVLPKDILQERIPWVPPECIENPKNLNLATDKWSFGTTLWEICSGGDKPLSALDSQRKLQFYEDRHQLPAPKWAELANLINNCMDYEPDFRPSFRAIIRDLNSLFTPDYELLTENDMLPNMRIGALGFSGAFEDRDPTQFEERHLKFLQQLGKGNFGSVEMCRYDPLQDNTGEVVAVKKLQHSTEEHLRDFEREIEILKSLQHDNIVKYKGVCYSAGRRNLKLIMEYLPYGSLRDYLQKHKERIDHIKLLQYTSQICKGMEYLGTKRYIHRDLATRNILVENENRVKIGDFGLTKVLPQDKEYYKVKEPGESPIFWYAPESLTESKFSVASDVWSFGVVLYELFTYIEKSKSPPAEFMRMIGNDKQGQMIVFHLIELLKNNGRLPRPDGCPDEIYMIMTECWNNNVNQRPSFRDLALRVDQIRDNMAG

With `Cc1nnc(-c2n[nH]c3cc(-c4cc(F)c(O)cc4CC(F)(F)F)nc(NCc4ccccc4N(C)S(C)(=O)=O)c23)[nH]1`, the IC50 in test [1] was 0.129 µM; in test [2] it was 0.0275 µM; in test [3], 0.15 µM; in test [4], 0.429 µM.

Turning to `CCc1cc(O)ccc1-c1cc2[nH]ncc2c(N2CC(Oc3ccccc3)C2)n1`, the concentration for half-maximal inhibition (IC50) in test [1] came to 0.0829 µM; in test [2] it was 0.0121 µM; in test [3], 5.17 µM; in test [4], 0.0675 µM.

For `CN(c1ccc(O)cc1CNc1nc(-c2cc(F)c(O)cc2CC(F)(F)F)nc2[nH]nc(C(N)=O)c12)S(C)(=O)=O`, the IC50 worked out at 0.0127 µM in test [1], 0.0032 µM in test [2], 0.373 µM in test [3] and 0.038 µM in test [4].

Take `CN(c1ccc(O)cc1CNc1nc(-c2cc(F)c(O)cc2CC(F)(F)F)nc2[nH]nc(-c3nc4c([nH]3)CCNC4)c12)S(C)(=O)=O`: the IC50 in test [1] amounted to 0.0353 µM; in test [2] it was 0.0056 µM; in test [3] it was 0.0686 µM; in test [4] it was 0.111 µM.

As to `CS(=O)(=O)N(CCO)c1ccccc1CNc1nc(-c2cc(F)c(O)cc2CC(F)(F)F)cc2[nH]nc(C(N)=O)c12`, the IC50 in test [1] is 0.0147 µM; in test [2], 0.0029 µM; in test [3], 0.0488 µM; in test [4], 0.0535 µM.

Regarding `CN(c1ccccc1CNc1nc(-c2cc(F)c(O)cc2CC(F)(F)F)nc2[nH]nc(-c3nnc(C4CCN(C(=O)CN5CCCC5)CC4)[nH]3)c12)S(C)(=O)=O`, the IC50 in test [1] amounted to 0.0543 µM; in test [2], 0.0168 µM; in test [3] it was 2.26 µM; in test [4] it was 0.158 µM.

With `CCc1cc(O)ccc1-c1cc2[nH]ncc2c(NCCc2ccc(-c3ccccc3)cc2)n1`, the concentration for half-maximal inhibition (IC50) in test [1] was determined as 0.183 µM; in test [2], 0.0876 µM; in test [3], 4.23 µM; in test [4], 0.157 µM.
